# Source: patent US20080015147A1, “Method for inhibiting neuronal cell death” (priority 2006, published 2008)
# Entries after “also recorded” stand apart in the source; their conditions may differ.
# Columns and labels:
# Akt = Akt western blot; assay type: cell-based, mouse; details: all pH treatments; 48 hrs
# Method: (§1) Western blots using Akt and phosphorylated Akt (P-Akt) primary antibodies were conducted on all conditions of the cultured N38 cells to determine whether TCAP was preventing cell death by phosphorylation. The same western blot procedure outlined above was repeated with an Akt primary antibody (Cell Signalling, Beverly) at a titer of 1:500, followed by membrane incubation with anti-rabbit HRP-conjugated secondary antibody (Amersham, Baie d'Urfé) at 1:3000, followed by exposure on Kodak X-OMAT Blue film (Perkin Elmer Canada Inc, Vaudreuil-Dorion) for 30 min. Phospho Akt expression at 48 hrs was determined using the method described above with a PAkt primary antibody (Cell Signalling 9271) at 1:1000 followed by membrane incubation with anti-rabbit HRP-conjugated secondary antibody (Amersham, Baie d'Urfé) at 1:2000 followed by exposure on Kodak X-OMAT Blue film (Perkin Elmer Canada Inc, Vaudreuil-Dorion) overnight. Cultured N38 cells were serum-starved for 48 hours in order to induce phosphorylation and following the same protocol above were loaded as a control. Total optical density of the blots, were quantified using LabWorks 4.0 Image Acquisition and Analysis Software from Ultra-Violet Products Ltd. (UVP).
# superoxide dismutase [1] = assay: Superoxide dismutase western blot; assay type: cell-based, mouse
# [2] = system: cells treated with 50 μM H2O2; assay: H2O2 toxicity MTT assay; assay type: cell-based, mouse
# superoxide dismutase [3] = assay: Superoxide dismutase gene expression by real-time PCR; assay type: cell-based, mouse; details: p<0.01
# N38 cells = assay: Fluorescent microscopy of necrosis and apoptosis markers; assay type: cell-based, mouse; details: 48 hrs
# Method: N38 cells were cultured on poly-D-Lysine treated coverslips (VWR, Mississauga) in each of the four pH condition, and cells were washed twice with PBS, each fluorochrome was added to each well: 5 μl Fluorescein (FITC)-Annexin V in Tris EDTA buffer containing 0.1% BSA (Bovine serum albumin) and 0.1% NaN3, pH 7.5, 5 μl rhodamine EtD-III 200 μM in PBS and 5 μl 4′,6-Diamidino-2-phenylindole (DAPI) Hoechst 33342 5 μg/mL in PBS (Biotium, Inc. Hayward). The samples were incubated in the dark for 15 min, then washed before being placed on slides. The cells were viewed under a Leica DM4500 inverted fluorescent microscope and digitally analyzed using OpenLab software.
# Annexin V labelled with fluorescein (FITC) was used to identify apoptotic cells in green. Ethidium homodimer III (EtD-III) is a positively charged nucleic acid probe, which is impermeable to live or apoptotic cells but stains necrotic cells with red fluorescence (rhodamine) and Hoechst 3342 (4′,6-Diamidino-2-phenylindole) (DAPI) emits bright blue fluorescence upon binding to DNA in living cells.
# Phospho-Akt = Phospho-Akt western blot; assay type: cell-based, mouse; details: all pH treatments; 48 hrs
# Method: as §1
# [4] = system: N38 cells immortalized mouse hypothalamic cell line; assay: Cell morphology analysis (small round necrotic cells); assay type: cell-based; details: for number of small round (necrotic) cells, vehicle vs TCAP-treated: 48 hrs; for number of rounded cells relative to vehicle: 72 hrs
# Method: The effect of TCAP-1 on cell morphology was conducted using the N38 cells immortalized mouse hypothalamic cell line(Belsham et al, 2004). Cells were grown in six-well culture plate with 2 ml of Dulbeco's Modified Eagle Medium (DMEM) with high glucose, […], 25 mM HEPES buffer, pyridoxine hydrochloride in the absence of sodium pyruvate, 5 ml penicillin with 10% fetal bovine serum (FBS) at pH 7.4 (all from Gibco-Invitrogen, Burlington, Canada).
# At 24 and 48 hrs, the medium was replaced with medium buffered at pH 6.8, 7.4, 8.0 or 8.4. Half of the cell groups received (2×10^−7 M) TCAP-1, whereas the other half received phosphate buffered saline (PBS) pH 7.4 containing 8 g NaCl, 0.2 g KCl, 1.4 g Na2HPO4, 0.2 g KH2PO4 in. 800 mL ddH2O. For all groups, 4 replicates were run. Digital pictures were taken at 24, 48 and 72 hrs using an Olympus IX&1 inverted microscope at a magnification of 200× and analyzed using LabWorks 4.0 Image Acquisition and Analysis software (UltraViolet Products Ltd).
# catalase = assay: Catalase assay on pH treated cells; assay type: cell-based, mouse
# Method: A catalase assay was performed on the pH treated cells in order to determine whether TCAP-1 was conferring survivability to the cells via upregulation of catalase and thus increasing H2O 2 breakdown into H2O and O2 (FIG. 9B). […] Bovine liver was also assayed as a positive control.
substance,measurement,setting,value
teneurin C-terminus associated peptide [TCAP-1],"endogenous Akt on western blot, vehicle vs TCAP",Akt,no difference in endogenous Akt
same,superoxide dismutase protein expression,superoxide dismutase [1]; pH 6.8,no significant differences in the expression of the superoxide dismutase protein
same,superoxide dismutase protein expression,superoxide dismutase [1]; pH 7.4,no significant differences in the expression of the superoxide dismutase protein
same,superoxide dismutase protein levels,"superoxide dismutase [1]; pH 8.0, p<0.05",reduced the pH-induced decline in superoxide dismutase levels
same,superoxide dismutase protein levels,"superoxide dismutase [1]; pH 8.4, p<0.01",reduced the pH-induced decline in superoxide dismutase levels
same,mitochondrial (MTT) activity vs vehicle,[2]; 0 hours,no effect
same,MTT activity relative to vehicle,[2]; 6 to 48 hours,significant increase in MTT activity
same,mitochondrial (MTT) activity vs vehicle,"[2]; 6 hours, p<0.001",significantly increased mitochondrial activity
same,mitochondrial (MTT) activity vs vehicle,"[2]; 12 hours, p<0.001",significantly increased mitochondrial activity
same,mitochondrial (MTT) activity vs vehicle,"[2]; 24 hours, p<0.05",less significant effect
same,mitochondrial (MTT) activity vs vehicle,"[2]; 48 hours, p<0.001",significantly increased mitochondrial activity
same,superoxide dismutase gene expression vs vehicle,superoxide dismutase [3]; pH 7.4,increase over the vehicle treated cells
same,superoxide dismutase gene expression vs vehicle,superoxide dismutase [3]; pH 8.4,increase over the vehicle treated cells
same,number of rhodamine-fluorescing (necrotic) cells,N38 cells; pH 6.8,decreased the number of rhodamine-fluorescing cells
same,number of rhodamine-fluorescing (necrotic) cells,"N38 cells; pH 6.8, listed as TCAP",significantly decreased the amount of necrotic cells
same,number of rhodamine-fluorescing (necrotic) cells,N38 cells; pH 8.0,decreased the number of rhodamine-fluorescing cells
same,number of rhodamine-fluorescing (necrotic) cells,"N38 cells; pH 8.0, listed as TCAP",significantly decreased the amount of necrotic cells
same,number of rhodamine-fluorescing (necrotic) cells,N38 cells; pH 8.4,decreased the number of rhodamine-fluorescing cells
same,number of rhodamine-fluorescing (necrotic) cells,"N38 cells; pH 8.4, listed as TCAP",significantly decreased the amount of necrotic cells
same,Akt phosphorylation (serine 473) on western blot,Phospho-Akt,no bands in any samples; also recorded: no indication of AKT phosphorylation
same,"number of small round (necrotic) cells, vehicle vs TCAP-treated","[4]; pH 6.8, p<0.05",significant increase in the number of small round cell types (necrotic cells) in the vehicle-treated cultures
same,observable morphological changes,"[4]; pH 7.4, TCAP-1 2×10^−7 M",did not induce any observable morphological changes
same,"number of small round (necrotic) cells, vehicle vs TCAP-treated","[4]; pH 8.0, p<0.001",significant increase in the number of small round cell types (necrotic cells) in the vehicle-treated cultures
same,number of rounded cells relative to vehicle,"[4]; pH 8.0, p<0.001",significantly decreased the number of rounded cells
same,"number of small round (necrotic) cells, vehicle vs TCAP-treated","[4]; pH 8.4, p<0.001",significant increase in the number of small round cell types (necrotic cells) in the vehicle-treated cultures
same,number of rounded cells relative to vehicle,"[4]; pH 8.4, p<0.001",significantly decreased the number of rounded cells
same,catalase levels vs vehicle,catalase; pH 6.8,no significant effects
same,catalase levels vs vehicle,catalase; pH 7.4,no significant effects
same,catalase levels vs vehicle,"catalase; pH 8.0, p<0.01",significant TCAP-1 effect
same,catalase levels vs vehicle,"catalase; pH 8.4, p<0.001",significantly increased catalase levels
